The record followed here is article PMC5344255, “Design, Synthesis and Biochemical Evaluation of Novel Selective Estrogen Receptor Ligand Conjugates Incorporating an Endoxifen-Combretastatin Hybrid Scaffold” (Biomedicines, 2016).

In general, IC50 refers to the concentration needed to halve the response being measured. The inhibition is the drop in the measured response relative to a control, in per cent.

Type in all cases: cell-based
Assay [1] has as its system MCF-7 human breast cancer cells. In words: MTT assay for antiproliferative effects in MCF-7. Conditions: for inhibition at 10 µM: MCF7, MCF-7, read-out: growth inhibition. As for the experimental part: (§1) The human breast carcinoma cell line, MCF-7, was purchased from the European Collection of Animal Cell Cultures (ECACC). The cells were maintained in MCF-7 complete medium; consisting of Eagle’s Minimum Essential Medium (MEM) supplemented with 10% (v/v) Foetal Bovine Serum (FBS), 2 mM L-glutamine, 100 μg/mL penicillin/streptomycin and 1% (v/v) non-essential amino acids. Cell cultures were maintained at 37 °C under a humidified atmosphere of 5% CO2/95% O2. The human breast carcinoma cell line, MDA, was purchased from the European Collection of Animal Cell Cultures (ECACC). The cells were maintained in MDA complete medium; consisting of Dulbecco’s Modified Eagle’s Medium (D-MEM) supplemented with 10% (v/v) Foetal Bovine Serum (FBS), 2 mM L-glutamine, 100 μg/mL penicillin/streptomycin. Cell cultures were maintained at 37 °C under a humidified atmosphere of 5% CO2/95% O2. The MTT assay was performed according to the reported protocol. The tetrazolium salt, 3-(4,5-dimethylthiazol-2-yl)-2,5-diphenyltetrazolium bromide (MTT) is taken up only by metabolically active cells and cleaved to form a formazan dye by mitochondrial dehydrogenases. Assays where repeated in three experiments performed in triplicate (unless otherwise stated) and reported results represent the mean value ± standard error mean. Graphs of percentage cell viability versus concentration of the subject compound were processed using PRISM [31].

The test system is the same in assay [2]. In words: Lactate dehydrogenase (LDH) cytotoxicity assay in MCF-7. Conditions: % cell lysis at 10 µM. As for the experimental part:
(§2) In this assay, the release of cytoplasmic lactate dehydrogenase (LDH) is used as a measure of cell lysis. MCF-7 and MDA-MB-231 cells were seeded at a density of 1 × 10^4 cells/well in a 96-well plate and incubated for 24 h. The cells were then dosed with 2 μL volumes of the test compounds, over the concentration range 1 nM–50 μM. Cytotoxicity was determined using the CytoTox 96 nonradioactive cytotoxicity assay (Promega, Madison, WI, USA) following the manufacturer’s protocol.

For assay [3], the system named is MDA-MB-231 human breast cancer cells. In words: Lactate dehydrogenase (LDH) cytotoxicity assay in MDA-MB-231. The note with it: % cell lysis at 10 μM. The procedure:
as §2

For assay [4] the test system is unchanged. The assay is described as follows: MTT assay for antiproliferative effects in MDA-MB-231. The note with it: MDA-MB-231, MTT assay. As for the experimental part: as §1, with “Cell cultures were maintained at 37 °C under a humidified atmosphere of 5% CO2/95% O2.” left out, “Assays where repeated in three experiments performed in triplicate (unless otherwise stated) and reported results represent the mean value ± standard error mean.” left out

Where [5] appears, read: Homo sapiens, MCF7, MCF-7, MTT assay, mean of at least three experiments in triplicate.
[6] abbreviates: Homo sapiens, MCF7, MCF-7, MTT assay, values in nM.
The mark [7] stands for this setting: MCF-7, MTT assay, mean of at least three experiments in triplicate.

For the compound `COc1ccc(/C(=C\c2cc(OC)c(OC)c(OC)c2)C(=O)N2CCCC2)cc1` [Compound 48, (E)-2-(4-methoxyphenyl)-1-(pyrrolidin-1-yl)-3-(3,4,5-trimethoxyphenyl)prop-2-en-1-one], the 50% inhibitory concentration (IC50) in assay [1] (setting [5]) was over 50000 nM.

As for `CCC(=C(c1ccc(O)cc1)c1ccc(OCCN(C)C(=O)/C(=C/c2ccc(Br)cc2)c2cc(OC)c(OC)c(OC)c2)cc1)c1ccc(O)cc1` (mixture of isomers) [Compound 42, (E)-N-(2-{4-[(E/Z)-1,2-Bis-(4-hydroxyphenyl)but-1-enyl]phenoxy}ethyl)-3-(4-bromophenyl)-N-methyl-2-(3,4,5-trimethoxyphenyl)acrylamide], the “% Cell Death at 10 μM” value in assay [2] was 7%; in assay [3] it was 9%. Further, the half-maximal inhibitory concentration (IC50) is 2350 nM in assay [1] (setting [5]) and over 50 µM in assay [4].

`CCC(=C(c1ccc(O)cc1)c1ccc(OCCN(C)C(=O)/C(=C/c2ccc3ccccc3c2)c2cc(OC)c(OC)c(OC)c2)cc1)c1ccc(O)cc1` (mixture of isomers) [Compound 36, (E)-N-(2-{4-[(E/Z)-1,2-Bis-(4-hydroxyphenyl)but-1-enyl]phenoxy}ethyl)-N-methyl-3-naphthalen-2-yl-2-(3,4,5-trimethoxyphenyl)acrylamide]: the entries for the “% Cell Death at 10 μM” value in assay [2] and in assay [3] were 3% and 0%, respectively. The IC50 in assay [1] (setting [5]) amounted to 3620 nM; in assay [1] (setting [6]) it was 1.51 nM; in assay [4], 4.32 µM.

Take `CCC(=C(c1ccc(O)cc1)c1ccc(OCCN(C)C(=O)/C(=C/c2ccc(Br)cc2)c2cc(OC)c(OC)c(OC)c2)cc1)c1ccccc1` (mixture of isomers) [Compound 41, (E)-3-(4-Bromophenyl)-N-(2-{4-[(E/Z)-1-(4-hydroxyphenyl)-2-phenylbut-1-enyl]phenoxy}ethyl)-N-methyl-2-(3,4,5-trimethoxyphenyl)acrylamide]: the “% Cell Death at 10 μM” value in assay [2] is given as 5%; in assay [3], 0%. The half-maximal inhibitory concentration (IC50) is 1030 nM in assay [1] (setting [5]) and over 50 µM in assay [4].

For `CC/C(=C(\c1ccc(O)cc1)c1ccc(OCCN(C)C)cc1)c1ccccc1` [4-Hydroxytamoxifen, reference compound], the “% Cell Death at 10 μM” value in assay [3] came to 0%. The compound also displayed an IC50 in assay [4] of 18 µM.

As for `COc1ccc(/C=C(/C(=O)N2CCCCC2)c2cc(OC)c(OC)c(OC)c2)cc1N` [Compound 55, (E)-3-(3-Amino-4-methoxyphenyl)-1-(piperidin-1-yl)-2-(3,4,5-trimethoxyphenyl)prop-2-en-1-one], the inhibition at 10 µM in assay [1] (Homo sapiens) stood at 34%.

Consider `COc1ccc(/C=C(/C(=O)O)c2cc(OC)c(OC)c(OC)c2)cc1` [Compound 14], for which the concentration for half-maximal inhibition (IC50) in assay [1] (setting [5]) was under 10000 nM; in assay [1] (setting [7]) it was 7800 nM.

With `CCC(=C(c1ccc(O)cc1)c1ccc(OCCN(C)C(=O)/C(=C/c2ccc3c(c2)OCO3)c2ccc(OC)cc2)cc1)c1ccc(O)cc1` (mixture of isomers) [Compound 34, (E)-3-Benzo[1,3]dioxol-5-yl-N-(2-{4-[(E/Z)-1,2-bis-(4-hydroxyphenyl)but-1-enyl]phenoxy}ethyl)-2-(4-methoxyphenyl)-N-methylacrylamide], the “% Cell Death at 10 μM” value in assay [2] is 6%; in assay [3] it was 16%. Also, the half-inhibitory concentration (IC50) came to 49 nM in assay [1] (setting [5]) and 0.68 µM in assay [4].

For the compound `COc1ccc(/C=C(/C(=O)N2CCCC2)c2cc(OC)c(OC)c(OC)c2)cc1N` [Compound 54, (E)-3-(3-Amino-4-methoxyphenyl)-1-(pyrrolidin-1-yl)-2-(3,4,5-trimethoxyphenyl)prop-2-en-1-one], the IC50 in assay [1] (setting [5]) was over 50000 nM.

For `CCC(=C(c1ccc(O)cc1)c1ccc(OCCN(C)C(=O)/C(=C/c2ccc(OC)c(N)c2)c2cc(OC)c(OC)c(OC)c2)cc1)c1ccc(O)cc1` (mixture of isomers) [Compound 46, (E)-3-(3-Amino-4-methoxyphenyl)-N-(2-{4-[(E/Z)-1,2-bis-(4-hydroxyphenyl)but-1-enyl]phenoxy}ethyl)-N-methyl-2-(3,4,5-trimethoxyphenyl) acrylamide], the figures for the “% Cell Death at 10 μM” value in assay [2] and in assay [3] were 6% and 0%, respectively. The half-maximal inhibitory concentration (IC50) is 6150 nM in assay [1] (setting [5]) and 49.7 µM in assay [4].

`COc1ccc(/C=C(/C(=O)N2CCCCC2)c2cc(OC)c(OC)c(OC)c2)cc1O` [Compound 49, (E)-3-(3-hydroxy-4-methoxyphenyl)-1-(piperidin-1-yl)-2-(3,4,5-trimethoxyphenyl)prop-2-en-1-one] returned a 50% inhibitory concentration (IC50) in assay [1] (setting [5]) of over 50000 nM.

Take `CCC(=C(c1ccc(O)cc1)c1ccc(OCCN(C)C(=O)/C(=C/c2ccc(SC)cc2)c2cc(OC)c(OC)c(OC)c2)cc1)c1ccc(O)cc1` (mixture of isomers) [Compound 40, (E)-N-(2-{4-[(E/Z)-1,2-Bis-(4-hydroxyphenyl)but-1-enyl]phenoxy}ethyl)-N-methyl-3-(4-methylsulfanylphenyl)-2-(3,4,5-trimethoxyphenyl)acrylamide]: the “% Cell Death at 10 μM” value in assay [2] came to 2%. For the same compound, half-maximal inhibition in assay [1] (setting [5]) (IC50) required 64 nM.

With `CCC(=C(c1ccc(O)cc1)c1ccc(OCCN(C)C(=O)/C(=C/c2ccc(C)cc2)c2cc(OC)c(OC)c(OC)c2)cc1)c1ccc(O)cc1` (mixture of isomers) [Compound 38, (E)-N-(2-{4-[(E/Z)-1,2-Bis-(4-hydroxyphenyl)but-1-enyl]phenoxy}ethyl)-N-methyl-3-p-tolyl-2-(3,4,5-trimethoxyphenyl)acrylamide], in assay [2], the “% Cell Death at 10 μM” value was 12%. For the same compound, in assay [1] (setting [5]), the 50% inhibitory concentration (IC50) is 372 nM.

Consider `COc1ccc(/C=C(/C(=O)O)c2cc(OC)c(OC)c(OC)c2)cc1F` [Compound 15], for which 55100 nM corresponded to half-maximal inhibition in assay [1] (setting [5]) (IC50).

With `COc1ccc(/C=C(/C(=O)O)c2cc(OC)c(OC)c(OC)c2)cc1O` [Compound 13], 120 nM corresponded to half-maximal inhibition in assay [1] (setting [5]) (IC50). Against the preceding compound, the IC50 is about 460-fold lower.

As to `COc1ccc(/C(=C\c2cc(OC)c(OC)c(OC)c2)C(=O)O)cc1` [Compound 23], the IC50 in assay [1] (setting [5]) was over 50000 nM.

Take `COc1ccc(/C=C(/C(=O)N2CCCCC2)c2cc(OC)c(OC)c(OC)c2)cc1` [Compound 53, (E)-3-(4-Methoxyphenyl)-1-(piperidin-1-yl)-2-(3,4,5-trimethoxyphenyl)prop-2-en-1-one]: in assay [1] (Homo sapiens), the inhibition at 10 µM is 35%.

In turn, `COc1ccc(/C=C(/C(=O)N2CCCC2)c2cc(OC)c(OC)c(OC)c2)cc1` [Compound 52, (E)-3-(4-Methoxyphenyl)-1-(pyrrolidin-1-yl)-2-(3,4,5-trimethoxyphenyl)prop-2-en-1-one] showed a concentration for half-maximal inhibition (IC50) in assay [1] (setting [5]) of over 50000 nM.

`COc1ccc(/C(=C\c2ccc3c(c2)OCO3)C(=O)O)cc1` [Compound 25] displayed a 50% inhibitory concentration (IC50) in assay [1] (setting [7]) of over 50000 nM.

With `CCC(=C(c1ccc(O)cc1)c1ccc(OCCN(C)C(=O)/C(=C/c2ccc(C)cc2)c2cc(OC)c(OC)c(OC)c2)cc1)c1ccccc1` (mixture of isomers) [Compound 37, (E)-N-(2-{4-[(E/Z)-1-(4-Hydroxyphenyl)-2-phenylbut-1-enyl]phenoxy}ethyl)-N-methyl-3-p-tolyl-2-(3,4,5-trimethoxyphenyl)acrylamide], in assay [2], the “% Cell Death at 10 μM” value is reported as 2%. The IC50 in assay [1] (setting [5]) came out at 1750 nM; in assay [1] (setting [6]), 3.62 nM.

Consider `CCC(=C(c1ccc(O)cc1)c1ccc(OCCN(C)C(=O)/C(=C/c2ccc(SC)cc2)c2cc(OC)c(OC)c(OC)c2)cc1)c1ccccc1` (mixture of isomers) [Compound 39, (E)-N-(2-{4-[(E/Z)-1-(4-Hydroxyphenyl)-2-phenylbut-1-enyl]phenoxy}ethyl)-N-methyl-3-(4-methylsulfanylphenyl)-2-(3,4,5-trimethoxyphenyl) acrylamide], for which the “% Cell Death at 10 μM” value in assay [2] was found to be 3%. In addition, the midpoint of inhibition in assay [1] (setting [5]), the IC50, lay at 790 nM.
